Source: the supplement of paper PMC4862054

Key:
HCC1143 [1] = assay: normalised viability (% of control), CellTiter-Blue; higher = more viable cells (about 100 = DMSO control); conditions: 100 nM; incubation time: 72 h
Outline: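 Each entry is normalised viability at a single listed concentration within a series. It comes from breast cancer cell lines incubated 72 h with compound in 384-well plates, then measured with CellTiter-Blue fluorescence at 560/590 nm. Every plate was normalised between vehicle (100) and a positive kill control (0).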

MDA-MB-436 [2] = conditions: 72 h
Outline: (§1)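 Plates of 384 wells holding compound in 5 µl medium received breast cancer cell lines in 20 µl suspension and were incubated 72 h. CellTiter-Blue (2.5 µl, 2 h, 37 °C) was used for viability, read at 560/590 nm, and every plate was normalised to vehicle and a positive kill control and assessed by Z'-factor. The EC50 derives from a percent-inhibition dose-response curve fit censored at the highest concentration, leaving out rows whose drug sensitivity score was zero.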

HCC1143 [3] = conditions: 72 h
Outline: as §1

HCC1599 [4] = conditions: 72 h
Outline: as §1

BT-549 [5] = conditions: 72 h
Outline: as §1

CAL-120 [6] = conditions: 72 h
Outline: as §1

HCC1937 = assay: normalised viability (% of control), CellTiter-Blue; higher = more viable cells (100 = DMSO, 0 = benzethonium chloride kill control); conditions: 1 nM; incubation time: 72 h
Procedure: (§2)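 DSRT, CellTiter-Blue viability, 72 h incubation. Signal is normalised to DMSO and benzethonium chloride controls. Value is the normalised response at dose 1.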

MDA-MB-436 [7] = assay: as above; conditions: 1 nM; incubation time: 72 h
Procedure: as §2

HDQ-P1 [8] = assay: as above; conditions: 1 nM; incubation time: 72 h
Procedure: as §2

BT-474 = assay: as above; conditions: 1 nM; incubation time: 72 h
Procedure: as §2

MDA-MB-453 [9] = assay: as above; conditions: 1 nM; incubation time: 72 h
Procedure: as §2

CAL-148 [10] = assay: as above; conditions: 1 nM; incubation time: 72 h
Procedure: as §2

CAL-51 [11] = assay: as above; conditions: 1 nM; incubation time: 72 h
Procedure: as §2

Hs578T = assay: as above; conditions: 1 nM; incubation time: 72 h
Procedure: as §2

MDA-MB-231 = assay: as above; conditions: 1 nM; incubation time: 72 h
Procedure: as §2

DU-4475 [12] = assay: as above; conditions: 1 nM; incubation time: 72 h
Procedure: as §2

HCC1143 [13] = assay: as above; conditions: 1 nM; incubation time: 72 h
Procedure: as §2

MDA-MB-468 = assay: as above; conditions: 1 nM; incubation time: 72 h
Procedure: as §2

CAL-85-1 [14] = assay: as above; conditions: 1 nM; incubation time: 72 h
Procedure: as §2

SK-BR-3 = assay: as above; conditions: 1 nM; incubation time: 72 h
Procedure: as §2

HCC1599 [15] = assay: as above; conditions: 1 nM; incubation time: 72 h
Procedure: as §2

BT-549 [16] = assay: as above; conditions: 1 nM; incubation time: 72 h
Procedure: as §2

CAL-120 [17] = assay: as above; conditions: 1 nM; incubation time: 72 h
Procedure: as §2

MFM-223 [18] = assay: as above; conditions: 1 nM; incubation time: 72 h
Procedure: as §2

HDQ-P1 [19] = conditions: 72 h
Outline: as §1

MDA-MB-453 [20] = conditions: 72 h
Outline: as §1

CAL-148 [21] = conditions: 72 h
Outline: as §1

CAL-51 [22] = conditions: 72 h
Outline: as §1

DU-4475 [23] = conditions: 72 h
Outline: as §1

CAL-85-1 [24] = conditions: 72 h
Outline: as §1

MFM-223 [25] = conditions: 72 h
Outline: as §1

SMILES	normalised viability (HCC1143 [1]) [%]	EC50, CellTiter-Blue viability (MDA-MB-436 [2]) [nM]	EC50, CellTiter-Blue viability (HCC1143 [3]) [nM]	EC50, CellTiter-Blue viability (HCC1599 [4]) [nM]	EC50, CellTiter-Blue viability (BT-549 [5]) [nM]	EC50, CellTiter-Blue viability (CAL-120 [6]) [nM]	normalised viability (HCC1937) [%]	normalised viability (MDA-MB-436 [7]) [%]	normalised viability (HDQ-P1 [8]) [%]	normalised viability (BT-474) [%]	normalised viability (MDA-MB-453 [9]) [%]	normalised viability (CAL-148 [10]) [%]	normalised viability (CAL-51 [11]) [%]	normalised viability (Hs578T) [%]	normalised viability (MDA-MB-231) [%]	normalised viability (DU-4475 [12]) [%]	normalised viability (HCC1143 [13]) [%]	normalised viability (MDA-MB-468) [%]	normalised viability (CAL-85-1 [14]) [%]	normalised viability (SK-BR-3) [%]	normalised viability (HCC1599 [15]) [%]	normalised viability (BT-549 [16]) [%]	normalised viability (CAL-120 [17]) [%]	normalised viability (MFM-223 [18]) [%]	EC50, CellTiter-Blue viability (HDQ-P1 [19]) [nM]	EC50, CellTiter-Blue viability (MDA-MB-453 [20]) [nM]	EC50, CellTiter-Blue viability (CAL-148 [21]) [nM]	EC50, CellTiter-Blue viability (CAL-51 [22]) [nM]	EC50, CellTiter-Blue viability (DU-4475 [23]) [nM]	EC50, CellTiter-Blue viability (CAL-85-1 [24]) [nM]	EC50, CellTiter-Blue viability (MFM-223 [25]) [nM]
CO[C@@H](C(=O)N1Cc2[nH]nc(NC(=O)c3ccc(N4CCN(C)CC4)cc3)c2C1)c1ccccc1 [Danusertib]	87.4	1480	2290	38.1	1130	335	91.3	96.5	110	101	84.3	101	116	96.6	101	107	99.3	98.7	77.2	79.4	94.1	109	81	53.6	427	40.9	21.6	348	538	435	
CS(=O)(=O)N1CCN(Cc2cc3nc(-c4cccc5[nH]ncc45)nc(N4CCOCC4)c3s2)CC1 [GDC-0941]	81.9	2390	882	709	1540	990	112	118	109	101	93	100	114	112	92.9	106	84.1	95.5	87.5	88.3	92.8	94.6	89.7	89.7	156	212	960	569	5650	1070	721
O=C(Nc1c[nH]nc1-c1nc2ccc(CN3CCOCC3)cc2[nH]1)NC1CC1 [AT9283]	72.8	998	604	2120	798	144	95.6	98.8	103	96.6	100	91.3	107	117	91.6	95.5	87.1	114	88.9	104	101	98.5	87.1	102	771	245	1370	555	109	901	886
